Results published in PubChem BioAssay (NCI).
“And” between values parts separate entries of the source, which are not always exact repeats. Identical values can stand only once.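 Values below derive from 48-hour exposures of cells grown in 96-well plates, with endpoints linearly interpolated between the two concentrations bracketing the appropriate inhibition level. Here, GI50 denotes the concentration required for 50% inhibition of growth. At the TGI there is no net growth.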

Tests used:
Experiment in all cases: DTP human tumour cell line panel, 48 h
HL-60(TB) leukemia = tested on: HL-60(TB) leukemia
MOLT-4 leukemia = tested on: MOLT-4 leukemia
UO-31 renal = tested on: UO-31 renal
OVCAR-4 ovarian = tested on: OVCAR-4 ovarian
SK-MEL-5 melanoma = tested on: SK-MEL-5 melanoma
A498 renal = tested on: A498 renal
ACHN renal = tested on: ACHN renal
SNB-19 CNS = tested on: SNB-19 CNS
TK-10 renal = tested on: TK-10 renal
U251 CNS = tested on: U251 CNS

## CS(=O)(=O)N1CCN(Cc2cc3nc(-c4cccc5[nH]ncc45)nc(N4CCOCC4)c3s2)CC1
HL-60(TB) leukemia
  GI50: 0.121 µM and 0.052 µM
  TGI: > 100 µM
MOLT-4 leukemia
  GI50: 0.315 µM and 0.302 µM
  TGI: > 100 µM
UO-31 renal
  GI50: 0.174 µM and 0.105 µM
  TGI: > 4.03 µM
OVCAR-4 ovarian
  GI50: 2.77 µM and 0.894 µM
  TGI: > 100 µM
SK-MEL-5 melanoma
  GI50: 1.11 µM and 0.537 µM
  TGI: > 100 µM
A498 renal
  GI50: 0.0618 µM and 0.0581 µM
  TGI: 0.433 µM and 0.389 µM
ACHN renal
  GI50: 0.382 µM and 0.319 µM
  TGI: > 100 µM
SNB-19 CNS
  GI50: 2.91 µM and 0.896 µM
  TGI: > 100 µM
TK-10 renal
  GI50: 0.11 µM and 0.0949 µM
  TGI: 0.789 µM and 0.74 µM
U251 CNS
  GI50: 1.05 µM and 0.684 µM
  TGI: > 100 µM

## CC1(C)Cc2cccc(OCC(O)CN3CCN(c4ccc(F)cc4)CC3)c2O1 (stereo not drawn)
HL-60(TB) leukemia
  GI50: 16.4 µM
  TGI: > 50 µM
MOLT-4 leukemia
  GI50: 20.2 µM
  TGI: > 50 µM
UO-31 renal
  GI50: 13.5 µM
  TGI: > 50 µM
OVCAR-4 ovarian
  GI50: 13.3 µM
  TGI: > 50 µM
SK-MEL-5 melanoma
  GI50: 6.99 µM
  TGI: 13.9 µM
A498 renal
  GI50: 14 µM
  TGI: 35.1 µM
ACHN renal
  GI50: 9.65 µM
  TGI: 25 µM
SNB-19 CNS
  GI50: 31.7 µM
  TGI: > 50 µM
TK-10 renal
  GI50: > 50 µM
  TGI: > 50 µM
U251 CNS
  GI50: 12.8 µM
  TGI: 39.8 µM

## O=C(O)c1cc(N/C=C2\C(=O)c3ccccc3OC2O)ccc1O (stereo not drawn)
HL-60(TB) leukemia
  GI50: 9.18 µg/mL
  TGI: > 150 µg/mL
MOLT-4 leukemia
  GI50: 15.3 µg/mL
  TGI: 72 µg/mL
UO-31 renal
  GI50: 10.1 µg/mL
  TGI: 46.2 µg/mL
OVCAR-4 ovarian
  GI50: 29 µg/mL
  TGI: > 150 µg/mL
SK-MEL-5 melanoma
  GI50: 18 µg/mL
  TGI: 39.3 µg/mL
A498 renal
  GI50: 35.8 µg/mL
  TGI: 77.5 µg/mL
ACHN renal
  GI50: 28.3 µg/mL
  TGI: 82.7 µg/mL
SNB-19 CNS
  GI50: 19.9 µg/mL
  TGI: 67.5 µg/mL
TK-10 renal
  GI50: 39.2 µg/mL
  TGI: 118 µg/mL
U251 CNS
  GI50: 18 µg/mL
  TGI: 43.6 µg/mL

## Cn1cc(C2=C(c3c4n(c5ccccc35)CC(CN)C4)C(=O)NC2=O)c2ccccc21 (stereo not drawn)
HL-60(TB) leukemia
  GI50: 3.35 µM
  TGI: 9.91 µM
MOLT-4 leukemia
  GI50: 3.4 µM
  TGI: 15 µM
UO-31 renal
  GI50: 2.83 µM
  TGI: 8.27 µM
OVCAR-4 ovarian
  GI50: 2.33 µM
  TGI: 10.6 µM
SK-MEL-5 melanoma
  GI50: 3.53 µM
  TGI: 6.89 µM
A498 renal
  GI50: 2.96 µM
  TGI: 6.4 µM
ACHN renal
  GI50: 3.16 µM
  TGI: 12.3 µM
SNB-19 CNS
  GI50: 5.39 µM
  TGI: 15.3 µM
TK-10 renal
  GI50: 2.94 µM
  TGI: 8.07 µM
U251 CNS
  GI50: 2.61 µM
  TGI: 5.77 µM

## C=C1C(=O)O[C@H]2[C@H]1CC/C(COC(=O)/C=C\C(=O)NCc1ccc(Cn3c(=O)sn(-c4ccc(OC)cc4)c3=O)cc1)=C\CC[C@@]1(C)O[C@@H]21
HL-60(TB) leukemia
  GI50: 0.876 µM
  TGI: 3.74 µM
MOLT-4 leukemia
  GI50: 0.584 µM
  TGI: 9.78 µM
UO-31 renal
  GI50: 0.408 µM
  TGI: 1.06 µM
OVCAR-4 ovarian
  GI50: 0.706 µM
  TGI: 1.39 µM
SK-MEL-5 melanoma
  GI50: 0.828 µM
  TGI: 1.53 µM
A498 renal
  GI50: 0.799 µM
  TGI: 1.57 µM
ACHN renal
  GI50: 0.46 µM
  TGI: 1.07 µM
SNB-19 CNS
  GI50: 0.879 µM
  TGI: 1.78 µM
TK-10 renal
  GI50: 0.917 µM
  TGI: 1.67 µM
U251 CNS
  GI50: 0.834 µM
  TGI: 2.19 µM

## CCCn1cc(C2=C(c3cn(C)c4ccccc34)C(=O)NC2=O)c2ccccc21
HL-60(TB) leukemia
  GI50: 0.835 µM
  TGI: 3.64 µM
MOLT-4 leukemia
  GI50: 2.45 µM
  TGI: > 17.8 µM
UO-31 renal
  GI50: 1.42 µM
  TGI: 12 µM
OVCAR-4 ovarian
  GI50: 3.46 µM
  TGI: 14.2 µM
SK-MEL-5 melanoma
  GI50: 0.554 µM
  TGI: 4.36 µM
A498 renal
  GI50: 0.837 µM
  TGI: 4.77 µM
ACHN renal
  GI50: 2.04 µM
  TGI: 7.45 µM
SNB-19 CNS
  GI50: 5.58 µM
  TGI: > 25 µM
TK-10 renal
  GI50: 3.45 µM
  TGI: 22 µM
U251 CNS
  GI50: 1.17 µM
  TGI: 5.33 µM

## O=C(CCc1nnc(-c2c(Cl)cccc2Cl)o1)c1nc2ccccc2[nH]1
HL-60(TB) leukemia
  GI50: 2.23 µM
  TGI: 19.3 µM
MOLT-4 leukemia
  GI50: 4.07 µM
  TGI: 25.8 µM
UO-31 renal
  GI50: 6.71 µM
  TGI: 32.9 µM
OVCAR-4 ovarian
  GI50: 5.93 µM
  TGI: > 100 µM
SK-MEL-5 melanoma
  GI50: 2.88 µM
  TGI: 14.9 µM
A498 renal
  GI50: 1.53 µM
  TGI: 10.1 µM
ACHN renal
  GI50: 11.9 µM
  TGI: > 100 µM
SNB-19 CNS
  GI50: 17.4 µM
  TGI: > 100 µM
TK-10 renal
  GI50: 16.4 µM
  TGI: > 100 µM
U251 CNS
  GI50: 10.9 µM
  TGI: 77.6 µM

## CN(C)c1ccc(/C=C(\C#N)c2cc3ccccc3n2C)cc1
HL-60(TB) leukemia
  GI50: 0.0931 µM
MOLT-4 leukemia
  GI50: 0.32 µM
  TGI: > 100 µM
UO-31 renal
  GI50: 0.82 µM
  TGI: > 100 µM
OVCAR-4 ovarian
  GI50: 0.701 µM
  TGI: > 100 µM
SK-MEL-5 melanoma
  GI50: 0.606 µM
  TGI: 12.1 µM
A498 renal
  GI50: 0.0412 µM
  TGI: 0.604 µM
ACHN renal
  GI50: 0.386 µM
  TGI: > 100 µM
SNB-19 CNS
  GI50: 0.357 µM
  TGI: > 100 µM
TK-10 renal
  GI50: > 100 µM
  TGI: > 100 µM
U251 CNS
  GI50: 0.357 µM
  TGI: > 100 µM

## O=C(Nc1ncc(Cc2ccccc2)s1)c1ccc2c(c1)OCCO2
HL-60(TB) leukemia
  GI50: 0.0416 µM
  TGI: > 100 µM
MOLT-4 leukemia
  GI50: 0.146 µM
  TGI: > 100 µM
UO-31 renal
  GI50: 0.0756 µM
  TGI: > 100 µM
OVCAR-4 ovarian
  GI50: 0.561 µM
  TGI: > 100 µM
SK-MEL-5 melanoma
  GI50: 0.0428 µM
  TGI: 0.454 µM
A498 renal
  GI50: 0.0123 µM
  TGI: 0.0687 µM
ACHN renal
  GI50: 0.0676 µM
  TGI: > 100 µM
SNB-19 CNS
  GI50: 0.0549 µM
  TGI: > 38 µM
TK-10 renal
  GI50: 0.154 µM
U251 CNS
  GI50: 0.0418 µM
  TGI: > 100 µM

## O=C(CCc1nnc2s/c(=C\c3ccc4c(c3)OCO4)c(=O)n12)Nc1cc(Cl)ccc1Cl
HL-60(TB) leukemia
  TGI: > 100 µM
MOLT-4 leukemia
  TGI: > 100 µM
UO-31 renal
  TGI: > 100 µM
OVCAR-4 ovarian
  TGI: > 100 µM
SK-MEL-5 melanoma
  TGI: > 100 µM
A498 renal
  TGI: > 100 µM
ACHN renal
  TGI: > 100 µM
SNB-19 CNS
  TGI: > 100 µM
TK-10 renal
  TGI: > 100 µM
U251 CNS
  TGI: > 100 µM

## C#CC[C@@H]1C[C@]2(C)[C@H]3CC[C@@H]4[C@H]5[C@H](C(=C)C)CC[C@]5(C(=O)O)CC[C@@]4(C)[C@]3(C)CC[C@H]2C(C)(C)[C@H]1O
HL-60(TB) leukemia
  GI50: 2.57 µM
  TGI: > 100 µM
MOLT-4 leukemia
  GI50: 3.16 µM
  TGI: > 100 µM
UO-31 renal
  GI50: 1.83 µM
  TGI: 5.33 µM
OVCAR-4 ovarian
  GI50: 1.93 µM
  TGI: 3.83 µM
SK-MEL-5 melanoma
  GI50: 2.27 µM
  TGI: 5.58 µM
A498 renal
  GI50: 1.88 µM
  TGI: 4.19 µM
ACHN renal
  GI50: 1.5 µM
  TGI: 3.18 µM
SNB-19 CNS
  GI50: 3.04 µM
  TGI: 13.4 µM
TK-10 renal
  GI50: 1.85 µM
  TGI: 4.44 µM
U251 CNS
  GI50: 1.57 µM
  TGI: 3.03 µM

## Fc1ccc(CNc2c3ccccc3nc3ccccc23)cc1
HL-60(TB) leukemia
  GI50: 2.9 µM
  TGI: 8.97 µM
MOLT-4 leukemia
  GI50: 2.9 µM
  TGI: 10.8 µM
UO-31 renal
  GI50: 1.2 µM
  TGI: 4.14 µM
OVCAR-4 ovarian
  GI50: 2.05 µM
  TGI: 7.34 µM
SK-MEL-5 melanoma
  GI50: 1.73 µM
  TGI: 3.1 µM
A498 renal
  GI50: 1.36 µM
  TGI: 3.24 µM
ACHN renal
  GI50: 1.93 µM
  TGI: 5.64 µM
SNB-19 CNS
  GI50: 3.66 µM
  TGI: 15.4 µM
TK-10 renal
  GI50: 2.83 µM
  TGI: 10.6 µM
U251 CNS
  GI50: 3.02 µM
  TGI: 14.1 µM
